Here are results for one cell line from the supplement of paper PMC10307832.

What all share (test): relative viability (nuclei count vs DMSO), 5 days (fraction); higher = more cells survive
Compound in test [1]: C[C@@]1(C(=O)Nc2ccc(F)nc2)CCCN1c1nc(Nc2cc(C3CC3)n[nH]2)c2cccn2n1 + COc1cc2c(Oc3ccc(NC(=O)C4(C(=O)Nc5ccc(F)cc5)CC4)cc3F)ccnc2cc1OCCCN1CCOCC1 [Foretinib] (partner 0.25 µM)
The essentials:
(§1)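 Five library-drug doses in √10 steps were combined with a fixed anchor-drug dose, or a single drug was given alone, by pin tool to lung cancer cell lines in 1536-well plates the day after seeding. Nuclei were stained and counted after 5 days. Relative viability is the nuclei count in treated wells over that in vehicle wells, taken as the median of duplicate plates.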

Compound in test [2]: CC1(C)CNc2cc(NC(=O)c3cccnc3NCc3ccncc3)ccc21 [Motesanib] + N=C(N)NC(=N)NCCc1ccccc1 [Phenformin] (partner 250 µM)
In short, it runs like this:
as §1

Compound in test [3]: CC1(C)CNc2cc(NC(=O)c3cccnc3NCc3ccncc3)ccc21 [Motesanib] + COc1cccc2cc(-c3nc([C@H]4CC[C@H](C(=O)O)CC4)n4ncnc(N)c34)[nH]c12 [OSI-027] (partner 0.5 µM)
The essentials:
as §1

Compound in test [4]: CC1(C)CNc2cc(NC(=O)c3cccnc3NCc3ccncc3)ccc21 [Motesanib] + CC(C)C[C@H](NC(=O)[C@H](Cc1ccccc1)NC(=O)c1cnccn1)B(O)O [Bortezomib] (partner 0.002 µM)
The essentials: as §1

As to UMC-11, the relative viability in test [1] (first compound 0.04 µM) turned out to be 1.09; in test [1] (first compound 0.1265 µM) it was 1.12; in test [1] (first compound 0.4 µM) it was 0.901; in test [1] (first compound 1.265 µM) it was 0.299; in test [2] (first compound 0.01 µM), 0.29; in test [2] (first compound 0.03162 µM) it was 0.33. The relative viability in test [2] (first compound 0.1 µM) was 0.324; in test [2] (first compound 0.3162 µM), 0.33; in test [2] (first compound 1 µM) it was 0.345; in test [3] (first compound 0.01 µM) it was 0.461; in test [3] (first compound 0.03162 µM), 0.466; in test [3] (first compound 0.1 µM), 0.38. The relative viability in test [3] (first compound 0.3162 µM) is 0.503; in test [3] (first compound 1 µM), 0.51; in test [4] (first compound 0.01 µM) it was 0.648; in test [4] (first compound 0.03162 µM), 0.767; in test [4] (first compound 0.1 µM), 0.64; in test [4] (first compound 0.3162 µM), 0.683. Besides, the relative viability in test [4] (first compound 1 µM) was found to be 0.951.
